Our source for the Tm shift values is PubChem BioAssay AID381 (SGCOxCompounds, 2006).

Molecules are shown by their SMILES.

Aldo-keto reductase family 1 member C4 (Homo sapiens), sequence (P17516 whole entry, looked up): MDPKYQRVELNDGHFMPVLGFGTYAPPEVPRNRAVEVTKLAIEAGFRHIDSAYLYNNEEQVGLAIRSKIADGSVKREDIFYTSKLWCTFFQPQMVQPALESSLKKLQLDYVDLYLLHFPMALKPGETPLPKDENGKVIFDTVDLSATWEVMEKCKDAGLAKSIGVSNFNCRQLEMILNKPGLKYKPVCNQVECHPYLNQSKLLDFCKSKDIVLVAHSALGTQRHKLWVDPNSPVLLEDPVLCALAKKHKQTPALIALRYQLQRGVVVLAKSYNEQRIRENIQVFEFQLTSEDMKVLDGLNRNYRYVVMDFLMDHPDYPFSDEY

One assay concerns the target Aldo-keto reductase family 1 member C4 (Homo sapiens) (UniProt P17516). Kind of assay: ligand-induced stabilization of human AKR1C4 – biophysical, DSF, SYPRO orange, with or without NADPH (AID 381). As to conditions: recombinant AKR1C4, DSF thermal shift, at 10 µM, buffer 10 mM HEPES, NaCl 150 mM, pH 7.5, protein 2 µM, stronger effect = higher value.
On to `O=c1cc(-c2ccccc2)oc2cc(O)c(O)c(O)c12`, for which the Tm shift was 3.5 Celsius.

The same assay, now with this note: recombinant AKR1C4, DSF thermal shift, at 10 µM, buffer 10 mM HEPES, pH 7.5, NaCl 150 mM, NADPH 20 µM, protein 2 µM, stronger effect = higher value.
For `Oc1cc(Cl)ccc1Oc1ccc(Cl)cc1Cl`, the Tm shift is 2.3 Celsius. Same read-out and setting: the same measure for `C[C@]12CC[C@H]3[C@@H](CCC4=CC(=O)CC[C@@]43C)[C@@H]1CC[C@@H]2O`: 5.3 Celsius; for `C[C@]12CC[C@H]3C(=CCc4cc(O)ccc43)[C@@H]1CCC2=O`: 4.5 Celsius. The same measure, in the same setting: the same measure for `CC(=O)[C@H]1CC[C@H]2[C@@H]3CCC4=CC(=O)CC[C@]4(C)[C@H]3CC[C@]12C`: 4.5 Celsius.

Still in this assay, the particulars now being: recombinant AKR1C4, DSF thermal shift, at 10 µM, buffer 10 mM HEPES, pH 7.5, NaCl 150 mM, protein 2 µM, stronger effect = higher value.
In the case of `O=c1cc(-c2ccccc2)oc2cc(O)cc(O)c12`, the Tm shift is 2.3 Celsius.

As to `CC1(C)[C@@H](OC(=O)CCC(=O)O)CC[C@]2(C)[C@H]3C(=O)C=C4[C@@H]5C[C@@](C)(C(=O)O)CC[C@]5(C)CC[C@@]4(C)[C@]3(C)CC[C@@H]12`, the Tm shift is 7.3 Celsius. The same measure, in the same setting: the same measure for `O=C1C(=O)C(c2ccc(O)cc2O)Oc2cc(O)cc(O)c21` (configuration not stated): 2.1 Celsius; for `CC1CC(C)(C)NC(=S)N1CCCC(=O)N1CCN(C(c2ccccc2)c2ccc(Cl)cc2)CC1` (configuration not stated): 2.4 Celsius; for `O=c1cc(-c2ccc(O)cc2)oc2cc(O)cc(O)c12`: 2.2 Celsius. Still for that read-out and setting: the same measure for `CC1(C)[C@@H](O)CC[C@]2(C)[C@H]3C(=O)C=C4[C@@H]5C[C@@](C)(C(=O)O)CC[C@]5(C)CC[C@@]4(C)[C@]3(C)CC[C@@H]12`: 5 Celsius. Same read-out and setting: the same measure for `CC1(C)[C@@H](O)CC[C@]2(C)[C@H]3C(=O)C=C4[C@H]5C[C@@](C)(C(=O)O)CC[C@]5(C)CC[C@@]4(C)[C@]3(C)CC[C@@H]12`: 5.2 Celsius.
